Reference: patent US11103486B2, “Treatment of autoimmune disorders and infections using antagonists of SGK1 activity” (THE JOHNS HOPKINS UNIVERSITY, priority 2011, dated 2021)
Where a SMILES comes first, the peptide text is derived from it. The star is where a group is joined. Cbz = O=C(OCc1ccccc1)*

System: JunB
Experiment: JunB protein levels by immunoblot of nuclear extracts of CD4+ T cells activated under Th2 skewing conditions
Assay type: cell-based, mice
Details: T-SGK1−/− CD4+ T cells activated under Th2 skewing conditions; MG132 added during the final 2 hours of stimulation
Description: (11A) Nuclear and cytoplasmic extracts from Wt and T-SGK1−/− CD4+ T cells. Cells were purified by magnetic separation and stimulated for 72 hours in vitro with anti-CD3 and anti-CD28 and either (Th1) IL-12, IFN-γ, and anti-IL-4, or (Th2) IL-4, anti-IFN-γ, and anti-IL-12p40 skewing conditions. Cells were lysed and separated into nuclear and cytoplasmic fractions. Nuclear extracts were blotted for the expression of JunB, and Lamin B is included as a loading control. Cytosolic fractions were blotted to measure the E3 ligase activity of NEDD4L (S342), and actin is included as a loading control. (11B) Nuclear extract of Wt and T-SGK1−/− treated with MG132. As in A, but with the addition of the proteasome inhibitor MG-132 during the final 2 hours of stimulation. Nuclear fractions were blotted for JunB. (11C) Immunoprecipitates (IPs) of JunB from Wt and T-SGK1−/− CD4+ T cells skewed with IL4 and treated with MG132. As in B, but nuclear fractions were subject to IP with JunB antibody. […] Fold induction of long and short isoforms of TCF1 over no stimulation control, as analyzed by quantitative polymerase chain reaction. […] Cells were restimulated for 4 hours with phorbol 12-myristate 13-acetate (PMA) and ionomycin in the presence of a protein transport inhibitor, and analyzed for production of IFN-γ by intracellular staining. […]

`CC(C)C[C@@H](C=O)NC(=O)[C@H](CC(C)C)NC(=O)[C@H](CC(C)C)NC(=O)OCc1ccccc1` [MG132] (Cbz-Leu-Leu-Leu-aldehyde) was tested. Which “JunB levels (immunoblot, nuclear fraction)” value did it give?
The value was “JunB levels increased”.
